This is an account of results in patent publication US20180116220A1, “NOVEL TRIAZOLE DERIVATIVES” (BAYER CROPSCIENCE AKTIENGESELLSCHAFT, priority 2015, published 2018).

This series can be described thus: LogP by HPLC on reversed phase columns (EEC directive 79/831 Annex V.A8). In kind it is physicochemical. The conditions noted are these: for chromatographic logP: reversed phase HPLC column. The protocol: [table] If more than one LogP value is available within the same method, all the values are given and separated by “+”. […] Lambda-max-values were determined using UV-spectra from 200 nm to 400 nm and the peak values of the chromatographic signals. Measurement of LogP values was performed as outlined above.

[1] abbreviates: [a] LC-UV, acidic range, 0.1% formic acid in water and acetonitrile as eluent.
[2] abbreviates: [b] LC-UV, neutral range, 0.001 molar ammonium acetate solution in water and acetonitrile as eluent.

Structures are written as SMILES. Several values for one entry are separate records, joined by “and”; a condition that tells them apart may be missing. Equal entries are not always repeated. Marks after values point to notes of the source that are not given here.

For orientation: LogP means the decadic logarithm of the partition coefficient of the neutral form, usually between octanol and water. The low end stands for lower lipophilicity, the high end for higher lipophilicity. For `OC(Cn1cncn1)(c1ccc(F)cc1F)C1(Oc2ccc(Cl)cc2F)CC1` (racemic) [Example I-01], the lipophilicity (LogP) reads like this: under setting [1], 3.52^[a];; under setting [2], 3.50^[b]. For `OC(Cn1cncn1)(c1ccc(F)cc1F)C1(Oc2ccc(F)cc2Cl)CC1` (racemic) [Example I-02], the log partition coefficient (LogP) was 3.47^[a]; under setting [1] and 3.46^[b] under setting [2]. With `OC(Cn1cncn1)(c1ccc(F)cc1F)C1(Oc2ccccc2F)CC1` (racemic) [Example I-03], the LogP under setting [1] is 3.04^[a]. For the compound `OC(Cn1cncn1)(c1ccc(F)cc1F)C1(Oc2ccccc2I)CC1` (racemic) [Example I-04], the LogP by setting is: under setting [1], 3.64^[a];; under setting [2], 3.64^[b]. Taken in the same sequence, the figures for `OC(Cn1cncn1)(c1ccc(F)cc1F)C1(Oc2ccccc2Br)CC1` (racemic) [Example I-05] were 3.44^[a]; and 3.43^[b]. `OC(Cn1cncn1)(c1ccc(F)cc1F)C1(Oc2cccc(Br)c2)CC1` (racemic) [Example I-06]: the LogP under setting [1] is 3.54^[a]; and the LogP under setting [2] was 3.54^[b].

As to `OC(Cn1cncn1)(c1ccc(F)cc1F)C1(Oc2ccc(Br)cc2)CC1` (racemic) [Example I-07], the LogP runs as follows: under setting [1], 3.59^[a];; under setting [2], 3.59^[b].

For the compound `OC(Cn1cncn1)(c1ccc(F)cc1F)C1(Oc2ccc(I)cc2)CC1` (racemic) [Example I-08], the LogP under setting [1] is 3.78^[a]; and the LogP under setting [2] is 3.80^[b]. Taken in the same sequence, the figures for `OC(Cn1cncn1)(c1ccc(F)cc1F)C1(Oc2ccc(Br)cc2F)CC1` (racemic) [Example I-09] were 3.56^[a]; and 3.54^[b]. Taken in the same sequence, the figures for `OC(Cn1cncn1)(c1ccc(F)cc1F)C1(Oc2ccccc2)CC1` (racemic) [Example I-11] were 3.67^[a]; and 3.71^[b]. Taken in the same sequence, the figures for `Cc1cc(I)ccc1OC1(C(O)(Cn2cncn2)c2ccc(F)cc2F)CC1` (racemic) [Example I-12] were 4.25^[a]; and 4.30^[b]. For the compound `Cc1cc(Br)ccc1OC1(C(O)(Cn2cncn2)c2ccc(F)cc2F)CC1` (racemic) [Example I-13], the log partition coefficient (LogP) is 3.99^[a]; under setting [1] and 4.08^[b] under setting [2].

`OC(Cn1cncn1)(c1ccc(F)cc1F)C1(Oc2ccc(OC(F)(F)F)cc2)CC1` (racemic) [Example I-14]: the LogP was 3.70^[a]; under setting [1] and 3.77^[b] under setting [2]. For `OC(Cn1cncn1)(c1ccc(F)cc1F)C1(Oc2ccc(SC(F)(F)F)cc2)CC1` (racemic) [Example I-15], in that order: 4.09^[a]; and 4.13^[b].

In the case of `OC(Cn1cncn1)(c1ccc(Cl)cc1F)C1(Oc2ccc(F)cc2F)CC1` (racemic) [Example I-16], the LogP under setting [1] is 3.44^[a].

Consider `CC(=O)OC(Cn1cncn1)(c1ccc(F)cc1F)C1(Oc2ccc(Cl)cc2)CC1` (racemic) [Example I-17], for which the LogP by setting is: under setting [1], 3.47^[a];; under setting [2], 3.47^[b].

Turning to `OC(Cn1cncn1)(c1ccc(F)cc1F)C1(Oc2c(F)cccc2F)CC1` (racemic) [Example I-18], the lipophilicity (LogP) under setting [1] is 3.02^[a]. The same measure, in the same setting: the same measure for `OC(Cn1cncn1)(c1ccc(F)cc1F)C1(Oc2c(Cl)cccc2Cl)CC1` (racemic) [Example I-19]: 3.76^[a]; for `COC(Cn1cncn1)(c1ccc(F)cc1F)C1(Oc2c(Cl)cccc2Cl)CC1` (racemic) [Example I-20]: 4.06^[a]. Same read-out and setting: the same measure for `COC(Cn1cncn1)(c1ccc(F)cc1F)C1(Oc2c(F)cccc2F)CC1` (racemic) [Example I-21]: 3.48^[a]; for `OC(Cn1cncn1)(c1ccc(F)cc1F)C1(Oc2c(F)cccc2Cl)CC1` (racemic) [Example I-22]: 3.39^[a]; for `COC(Cn1cncn1)(c1ccc(F)cc1F)C1(Oc2c(F)cccc2Cl)CC1` (racemic) [Example I-23]: 3.78^[a].

Consider `OC(Cn1cncn1)(c1ccc(F)cc1F)C1(Oc2c(F)cccc2Br)CC1` (racemic) [Example I-24], for which the LogP under setting [1] was 3.51^[a].

Take `COC(Cn1cncn1)(c1ccc(F)cc1F)C1(Oc2c(F)cccc2Br)CC1` (racemic) [Example I-25]: the LogP under setting [1] was 3.83^[a]. Still for that read-out and setting: the same measure for `COC(Cn1cncn1)(c1ccc(F)cc1F)C1(Oc2ccc(F)cc2F)CC1` (racemic) [Example I-26]: 3.44^[a]; for `OC(Cn1cncn1)(c1ccc(Cl)cc1F)C1(Oc2ccc(Cl)cc2)CC1` (racemic) [Example I-27]: 3.94^[a]. On the same count and under the same terms, then `COC(Cn1cncn1)(c1ccc(Cl)cc1F)C1(Oc2ccc(Cl)cc2)CC1` (racemic) [Example I-28], with 4.29^[a]; and `OC(Cn1cncn1)(c1ccc(Cl)cc1F)C1(Oc2ccc(Cl)cc2F)CC1` (racemic) [Example I-29], with 3.89^[a]; and `CCOC(Cn1cncn1)(c1ccc(F)cc1F)C1(Oc2ccc(Cl)cc2)CC1` (racemic) [Example I-30], with 4.32^[a]. Still for that read-out and setting: the same measure for `C#CCOC(Cn1cncn1)(c1ccc(F)cc1F)C1(Oc2ccc(Cl)cc2)CC1` (racemic) [Example I-31]: 3.90^[a].

Consider `CCCOC(Cn1cncn1)(c1ccc(F)cc1F)C1(Oc2ccc(Cl)cc2)CC1` (racemic) [Example I-32], for which the log partition coefficient (LogP) under setting [1] is 4.73^[a]. Still for that read-out and setting: the same measure for `C=CCOC(Cn1cncn1)(c1ccc(F)cc1F)C1(Oc2ccc(Cl)cc2)CC1` (racemic) [Example I-33]: 4.34^[a]; for `C[Si](C)(C)COC(Cn1cncn1)(c1ccc(F)cc1F)C1(Oc2ccc(Cl)cc2)CC1` (racemic) [Example I-34]: 5.68^[a]; for `Fc1ccc(C(Cn2cncn2)(OCC2CC2)C2(Oc3ccc(Cl)cc3)CC2)c(F)c1` (racemic) [Example I-35]: 4.71^[a]. Turning to `COC(Cn1cncn1)(c1ccc(F)cc1F)C1(Oc2ccc(Cl)cc2)CC1` (racemic) [Example I-36], the LogP under setting [1] was 3.81^[a]. `CC(C)COC(Cn1cncn1)(c1ccc(F)cc1F)C1(Oc2ccc(Cl)cc2)CC1` (racemic) [Example I-37]: under setting [1], the LogP was 5.11^[a]. On the same count and under the same terms, then `OC(Cn1cncn1)(c1ccc(F)cc1F)C1(Oc2ccc(C(F)(F)F)cc2)CC1` (racemic) [Example I-38], with 3.70^[a]; and `OC(Cn1cncn1)(c1ccc(F)cc1F)C1(Oc2cccc(Cl)c2)CC1` (racemic) [Example I-39], with 3.55^[a]; and `OC(Cn1cncn1)(c1ccc(F)cc1F)C1(Oc2ccc(Cl)c(F)c2)CC1` (racemic) [Example I-40], with 3.63^[a]. Still for that read-out and setting: the same measure for `Fc1cc(Cl)ccc1C1(C2(Oc3ccc(Cl)cc3)CC2)CO1` (racemic) [Example V-22]: 5.08^[a]; for `Fc1cc(Cl)ccc1OC1(C2(c3ccc(Cl)cc3F)CO2)CC1` (racemic) [Example V-23]: 5.00^[a]. Still for that read-out and setting: the same measure for `Fc1ccc(C2(C3(Oc4ccc(Br)c(F)c4)CC3)CO2)c(F)c1` (racemic) [Example V-24]: 4.89^[a]; for `Fc1ccc(C2(C3(Oc4ccc(OC(F)F)cc4)CC3)CO2)c(F)c1` (racemic) [Example V-25]: 4.24^[a].

For `Fc1ccc(C2(C3(Oc4cccc(Cl)c4F)CC3)CO2)c(F)c1` (racemic) [Example V-26], the LogP under setting [1] is 4.44^[a].

For `Fc1ccc(C2(C3(Oc4ccc(F)c(F)c4)CC3)CO2)c(F)c1` (racemic) [Example V-27], the LogP under setting [1] is 4.36^[a].

In the case of `OC(Cn1cncn1)(c1ccc(F)cc1F)C1(Oc2ccc(Cl)cc2)CC1` (single isomer, unassigned) [Example I-41], the log partition coefficient (LogP) under setting [1] is 3.48^[a]. The term chromatographic logP denotes a lipophilicity value derived from retention on a column. With `Fc1ccc(C2(C3(Oc4ccc(Cl)cc4)CC3)CO2)c(F)c1` (stereo not shown) [Example V-1, 2-[1-(4-chlorophenoxy)cyclopropyl]-2-(2,4-difluorophenyl)oxirane], the chromatographic logP by setting is: under setting [1], 4.57; under setting [2], 4.58. Take `Fc1ccc(C2(C3(Oc4ccc(Cl)cc4F)CC3)CO2)c(F)c1` (stereo not shown) [Example V-2]: the LogP is, setting by setting: under setting [1], 4.50^[a]; 4.50^[b]; under setting [2], 4.50^[a]; 4.50^[b].

Regarding `Fc1ccc(C2(C3(Oc4ccc(F)cc4Cl)CC3)CO2)c(F)c1` (stereo not shown) [Example V-3], the LogP by setting is: under setting [1], 4.45; under setting [2], 4.44. Turning to `Fc1ccc(C2(C3(Oc4ccccc4F)CC3)CO2)c(F)c1` (stereo not shown) [Example V-4], the lipophilicity (LogP) under setting [1] was 3.99^[a]. Consider `Fc1ccc(C2(C3(Oc4ccccc4Br)CC3)CO2)c(F)c1` (stereo not shown) [Example V-5], for which the LogP by setting is: under setting [1], 4.36; under setting [2], 4.43. Taken in the same sequence, the figures for `Fc1ccc(C2(C3(Oc4cccc(Br)c4)CC3)CO2)c(F)c1` (stereo not shown) [Example V-6] were 4.63 and 4.71. For `Fc1ccc(C2(C3(Oc4ccc(Br)cc4)CC3)CO2)c(F)c1` (stereo not shown) [Example V-7], in that order: 4.66 and 4.74. For `Fc1ccc(C2(C3(Oc4ccccc4I)CC3)CO2)c(F)c1` (stereo not shown) [Example V-8], in that order: 4.58 and 4.66. On to `Fc1ccc(C2(C3(Oc4cccc(I)c4)CC3)CO2)c(F)c1` (stereo not shown) [Example V-9], for which the LogP reads like this: under setting [1], 4.82; under setting [2], 4.90. Taken in the same sequence, the figures for `Fc1ccc(C2(C3(Oc4ccc(I)cc4)CC3)CO2)c(F)c1` (stereo not shown) [Example V-10] were 4.87 and 4.95. In the case of `Fc1ccc(C2(C3(Oc4ccc(Br)cc4F)CC3)CO2)c(F)c1` (stereo not shown) [Example V-11], the LogP under setting [1] was determined as 4.57 and the LogP under setting [2] was 4.65.

`Cc1cc(I)ccc1OC1(C2(c3ccc(F)cc3F)CO2)CC1` (stereo not shown) [Example V-12]: under setting [2], the LogP is 5.40 and 5.48.
